Measurements taken from patent US20240018501A1, “HIGHER PERFORMANCE PROTEASES FOR SCARLESS PEPTIDE TAG REMOVAL” (priority 2017, published 2024).
Ends that are not written are not given here. * marks the point of attachment. Butanoyl(2-oxo) = CCC(=O)C(=O)*; Pyruvoyl = CC(=O)C(=O)*

B1: His6-CylA-27-412: CylA without secretion signal residues 1-26, N-terminal hexa-histidine tag, SEQ ID NO: 10 (protein)
chain: MGSSHHHHHHSQDPNSLSNNISFFIDNSQTTAIEEIESELSSEKVDYIQEIGLVSFKNLDDSDRKFIGKYFNVSEGKKLPDFKPEEVNSSILNINILNKDFKSFNWPYKKILSHIDPVKEQLGKDITIALIDSGIDRLHPNLQDNNLRLKNYVNDIELDEYGHGTQVAGVIDTIAPRVNLNSYKVMDGTDGNSINMLKAIVDATNDQVDIINVSLGSYKNMEIDDERFTVEAFRKVVNYARKNNILIVASAGNESRDISTGNEKHIPGGLESVITVGATKKSGDIADYSNYGSNVSIYGPAGGYGDNYKITGQIDAREMMMTYYPTSLVSPLGKAADFPDGYTLSFGTSLATPEVSAALAAIMSKNVDNSKDSNEVLNTLFENADSFIDKNSMLKYKEVRIK
modifications: N-terminal His6 tag; … PEPTIDE SEQUENCE FOR CylA with His6-tag, without the secretion signal peptide.
B2: CylA: class II LanP subtilisin-like serine protease of enterococcal cytolysin biosynthesis, SEQ ID NO: 9 (protein)
chain: MKKRGLTYILISYIFLILGTTGYASDLSNNISFFIDNSQTTAIEEIESELSSEKVDYIQEIGLVSFKNLDDSDRKFIGKYFNVSEGKKLPDFKPEEVNSSILNINILNKDFKSFNWPYKKILSHIDPVKEQLGKDITIALIDSGIDRLHPNLQDNNLRLKNYVNDIELDEYGHGTQVAGVIDTIAPRVNLNSYKVMDGTDGNSINMLKAIVDATNDQVDIINVSLGSYKNMEIDDERFTVEAFRKVVNYARKNNILIVASAGNESRDISTGNEKHIPGGLESVITVGATKKSGDIADYSNYGSNVSIYGPAGGYGDNYKITGQIDAREMMMTYYPTSLVSPLGKAADFPDGYTLSFGTSLATPEVSAALAAIMSKNVDNSKDSNEVLNTLFENADSFIDKNSMLKYKEVRIK
modifications: … PEPTIDE SEQUENCE FOR FULL LENGTH CylA
B3: CylA-96-412 (protein)
chain: EVNSSILNINILNKDFKSFNWPYKKILSHIDPVKEQLGKDITIALIDSGIDRLHPNLQDNNLRLKNYVNDIELDEYGHGTQVAGVIDTIAPRVNLNSYKVMDGTDGNSINMLKAIVDATNDQVDIINVSLGSYKNMEIDDERFTVEAFRKVVNYARKNNILIVASAGNESRDISTGNEKHIPGGLESVITVGATKKSGDIADYSNYGSNVSIYGPAGGYGDNYKITGQIDAREMMMTYYPTSLVSPLGKAADFPDGYTLSFGTSLATPEVSAALAAIMSKNVDNSKDSNEVLNTLFENADSFIDKNSMLKYKEVRIK

Experiments:
His6-ElxO = His6-ElxO activity assay (NADPH absorbance at 340 nm, LC-MS); assay type: biochemical, Staphylococcus epidermidis 15X154; details: LC-MS analysis
Method: Wild type or mutant His6-ElxO (2 or 10 μM) and purified peptide (0.1 to 5 mM) were incubated with NADPH (2.5 mM) in assay buffer (100 mM HEPES, 500 mM NaCl, pH 7.5) at 25° C. Reaction progress was monitored by UV spectrophotometry to measure initial rates, measuring the disappearance of NADPH absorbance at 340 nm. […] The mobile phase was 0.1% (v/v) formic acid in water (A) and methanol (B). A gradient of 0-70% (v/v) B in A over 30 minutes and a flow rate of 0.5 mL min^−1 were used.
Synthetic lactocin S (50 μM), obtained from Prof. J. Vederas (University of Alberta), was incubated with His6-ElxO (50 μM) and NADPH (10 mM) in assay buffer (100 mM HEPES, 500 mM NaCl, pH 7.5) at room temperature for 12 h. […] A gradient of 3-97% (v/v) B (0.10% (v/v) formic acid in methanol) in A (0.1% (v/v) formic acid in water) over 12 min was used.

[1] = system: Pediococcus acidilactici Pac1.0; assay: Agar diffusion bioactivity assay; assay type: cell-based; details: for activity against P. acidilactici Pac1.0: agar diffusion
Method: (§1) Agar diffusion bioactivity assays were performed using de Man-Rogosa-Sharpe (MRS) agar media. For each assay, aliquots of agar medium inoculated with overnight cultures of indicator strain (1/100 dilution) were poured into sterile plates. Aliquots of 20 μL of sample were placed into wells made on the solidified agar and the plates were incubated at 37° C. overnight. For determination of critical concentration, the diameter of the inhibition zones were determined and fitted to the equation D=a+b×(C), where D is the diameter of the inhibition zone, C is the concentration of bacteriocin, and a and b are constant parameters. For MIC determinations, serial dilutions of peptides were prepared in MRS broth and aliquots of 50 μL were dissolved in 150 μL of a 1 to 50 dilution of an overnight culture of indicator strain in fresh MRS broth on 96-well plates. The cultures were incubated at 37° C. overnight and the wells with no bacterial growth (OD600<0.3) were determined.

L. sake L45 = assay: Agar diffusion bioactivity assay, lactocin S producer strain; assay type: cell-based, Lactobacillus sake
Method: as §1

CylA = CylA self-cleavage (SDS-PAGE, MALDI-TOF MS); assay type: biochemical, Enterococcus faecalis
Method: E. coli BL21 (DE3) cells were transformed with pRSFDuet-1/CylA-27-412, pRSFDuet-1/CylA-27-412-E95A, pRSFDuet-1/CylA-27-412-S359A or pRSFDuet-1/LicP-25-433 vectors and plated on an LB plate containing 50 mg/L kanamycin. A single colony was picked and grown in 20 mL of LB with kanamycin at 37° C. for 12 h and the resulting culture was inoculated into 2 L of LB. Cells were cultured at 37° C. until the OD at 600 nm reached 0.5, cooled and IPTG was added to a final concentration of 0.1 mM. The cells were cultured at 18° C. for another 10 h before harvesting. The cell pellet was resuspended on ice in LanP start buffer (20 mM HEPES, 1 M NaCl, pH 7.5 at 25° C.) and lysed by homogenization. The lysed sample was centrifuged at 23,700×g for 30 min and the pellet was discarded. The supernatant was passed through 0.45-μm syringe filters and the protein was purified by immobilized metal affinity chromatography (IMAC) loaded with nickel as described in B. Li et al. Methods Enzymol. 2009, 458, 533. […] Protein concentration was quantified by its absorbance at 280 nm. The extinction coefficient for His6-CylA-27-412, His6-CylA-27-412-E95A and His6-CylA-27-412-S359A was calculated as 30,830 M^−1 cm^−1. The extinction coefficient for His6-LicP-25-433 was calculated as 46,300 M^−1 cm^−1. […]

modified CylLS [2] = assay: Kinetic analysis of full length CylA and CylA-96-412 against modified CylLS (LC/MS); assay type: biochemical, Enterococcus faecalis
Method: Targeted peptides were dissolved in H2O to a final concentration of 3 mg/mL. To a 85 μL solution of peptides, 10 μL of 500 mM HEPES buffer (pH 7.5) was added followed by 5 μL of 0.5 mg/mL AspN protease (for modified CylLL and CylLS peptides), 0.1 mg/mL CylA protease (for modified and unmodified CylLL, CylLS peptides, and modified HalA2-GDVQAE peptide) or 0.1 mg/mL LicP protease (for LicA2). For cleavage tests of the engineered GDVQAE peptides, CylA was added to a final concentration of 0.01 mg/mL, whereas the peptide was added to a concentration of 0.3 mg/mL with 50 mM HEPES buffer (pH 7.5). The protease cleavage reaction mixtures were kept at 25° C. for 1 to 48 h. Osmotic pressure was adjusted with NaCl solution with a final concentration of 150 mM. The digested peptide mixture was directly used for antimicrobial and hemolytic assay. For the kinetic analysis of CylA and its mutant proteins, His6-CylA-27-412 and His6-CylA-27-412-E95A proteins were added to a final concentration of 500 ng/mL and 2.5 μg/mL (22 nM and 110 nM), respectively, with modified CylLS supplied at a concentration of 0.3 mg/mL (36 μM). The reactions were allowed to proceed at room temperature and were stopped by 1% TFA at different time points for LC/MS analysis. Halα and Halβ were obtained by factor Xa cleavage of modified HalA1Xa and HalA2 Xa peptides using the procedure of Y. Shi, et al. J. Am. Chem. Soc. 2011, 133, 2338. CylLL″ and CylLS″ were prepared in the same way using modified CylLL-E-1K and CylLS-E-1K peptides as described in W. Tang and W. A. van der Donk, Nat. Chem. Biol. 2013, 9, 157.
As full length CylA is not available due to its self-cleavage, His6-CylA-27-412-E95A was chosen to serve as a substituent of full length CylA as the self-cleavage was abolished whereas the conserved catalytic C-terminal region of CylA remained unchanged. To obtain the mature protease CylA-96-412, His6-CylA-27-412 was aged at 4° C. for 12 hours to allow the self-cleavage to proceed until CylA-96-412 was the dominant peak monitored by MALDI-TOF MS. The aged protein mixture was directly used as a substituent of CylA-96-412. To test the proteases' activities, CylA-96-412 and His6-CylA-27-412-E95A were supplied with a final concentration of 22 nM and 110 nM, respectively, with modified CylLS served at a concentration of 36 μM. The reactions were stopped at 3 minute, 6 minute, 12 minute and 24 minute by 1% TFA and the formation of mature CylLS″ was monitored by liquid chromatography MS (LC/MS). […] The production of core peptide was analyzed by extracted ion chromatography monitoring the desired product mass 1017 (M+2H^+).

[3] = Storage and freeze-thaw stability of the proteases; assay type: physicochemical
modified CylLS [4] = target: modified CylLS
[5] = serial dilution agar diffusion, versus control samples containing native lactocin S

Molecule | reduction by His6-ElxO in the presence of NADPH (His6-ElxO) | other results
Pyr-AAIV (Pyruvoyl-AAIV) | reduced | –
Pyr-APVLA (Pyruvoyl-APVLA) [resembles the N-terminus of lactocin S] | reduced | –
OBu-AAIAK | substrates for the enzyme | –
Obu-RAIVK | accepted as substrates | –
Pyr-AAVLK | reduced | –
dihydrolactocin S | – | activity against P. acidilactici Pac1.0 [1]: active; critical concentrations (no inhibition zone) [1, 5]: smaller; inhibition zones [1, 5]: slightly larger; activity against L. sake L45 (L. sake L45): not against L. sake L45
Obu-AAIVK | accepted as substrates | –
OBu-AAAVK ({Butanoyl(2-oxo)}-AAAVK) | substrates for the enzyme | –
OBu-AGPAIR ({Butanoyl(2-oxo)}-AGPAIR) [resembles the N-terminus of Pep5] | reduced | –
lactocin S [reference compound] | confirming the formation of dihydrolactocin S | activity against P. acidilactici Pac1.0 [1]: active; activity against L. sake L45 (L. sake L45): not against L. sake L45
Pyr-LGPAIK (Pyruvoyl-LGPAIK) [mimics the N-terminal portion of dehydroepicidin 280] | reduced | –
Pyr-BPVLAAVAVAKKK | reduced | –
Glx-AAIVK | no significant formation of the reduced peptide | –
Pyr-AAI (Pyruvoyl-Ala-Ala-Ile) | reduced | –
B1 | – | CylA self-cleavage during expression or purification (CylA): cleavage event after residue Glu95
B2 | – | turnover rate (modified CylLS [2]): 20 min⁻¹; activity after multiple rounds of freeze-thaw [3]: no obvious decrease of activity; stability on storage ([3]; −20° C): stable
B3 | – | rate of proteolysis, formation of CylLS″ by LC/MS (22 nM enzyme, 36 µM substrate) (modified CylLS [4]): CylA-96-412 catalyzed the proteolysis of 20 substrate peptides per minute; rate of proteolysis of modified CylLS (modified CylLS [2]; enzyme 22 nM, modified CylLS 36 μM, room temperature, LC/MS): 20 substrate peptides per minute
